Laboratory results published in patent US20120128795A1, “COLORLESS, NON-FUMING, HAZARDLESS AND STABLE AQUA-REGIA, ITS PREPARATION METHOD AND USE IN TREATING MEDICAL DISORDERS” (priority 2010, published 2012).

Columns and labels:
[1] = tested on: intestinal transit of charcoal meal in albino rats; experiment: Gastrointestinal motility test (charcoal meal transit); format: in vivo, Swiss albino rats; conditions: charcoal meal one hour after dosing, sacrificed thirty minutes later; aqua-regia 0.03 ml, atropine sulphate 0.1 mg/kg; control group 84.46%
Method: (§1) The use of the hazardless and stable aqua-regia in rehydrating body cells was tested on albino rats. In an embodiment, Swiss albino rats weighing 150-180 g of either sex were selected for the experiment. Animals were allowed to acclimatize for a period of 2 weeks in laboratory environment by housing them in a plurality of polypropylene cages. The polypropylene cages were maintained under standard laboratory conditions at an ambient temperature of 25° C. with 35%-60% humidity. Animals were fed with standard rat pellet diet.
Atropine sulphate (standard reference anti-diarrheal drug), charcoal meal (10% activated charcoal in 5% gum acacia) and vehicle (2% v/v Tween 80 in distilled water) were used. […]
The gastrointestinal motility test was conducted to illustrate use of aqua-regia in rehydrating body cells, according to an embodiment herein. […] The distance travelled by the charcoal meal was calculated. The distance covered by the charcoal meal in the intestine was expressed as a percentage of the total distance travelled from the pylorus to the caecum of each animal.
(§2) Data were analyzed by one-way ANOVA followed by Dunnett's t-test using computerized Graph Pad InStat version 3.05.

[2] = tested on: castor oil-induced diarrhea in albino rats; experiment: Castor oil-induced diarrhea (weight of faeces, rate of defecation); format: in vivo, Swiss albino rats; conditions: STD group, 10 mg/kg i.p.
Method: as §1, with “anti-diarrheal activity” for “use”, “terms of reduction of rate of defecation and consistency of faeces” for “rehydrating body cells”
Loperamide (standard reference anti-diarrheal drug), castor oil (laxative agent), and normal saline solution (0.9% NaCl) were used. […]
Animals of all the groups were placed separately in individual cages lined with filter paper. The filter paper was changed every 1 hour and the severity of diarrhea was assessed hourly for two hours. The total weight of faeces excreted were recorded within a period of two hours and compared with that of the control group. […]
as §2

Structure (SMILES) | percentage transit (distance covered by charcoal meal as percentage of distance from pylorus to caecum) [1] [%] | diarrheal symptoms [2]
CN1[C@@H]2CC[C@H]1CC(OC(=O)C(CO)c1ccccc1)C2.CN1[C@@H]2CC[C@H]1CC(OC(=O)C(CO)c1ccccc1)C2.O=S(=O)(O)O (some centres unmarked) [standard drug, Atropine sulphate] | 55.57 | 
CN(C)C(=O)C(CCN1CCC(O)(c2ccc(Cl)cc2)CC1)(c1ccccc1)c1ccccc1 [loperamide, Loperamide] |  | does not possess any diarrheal symptoms
